Source: PMC12064818, “A general assay platform to study protein pharmacology using ligand-dependent structural dynamics” (Nature Communications, 2025)

Molecular target: T1, Nano luciferase (NLuc) (Oplophorus gracilirostris, UniProt Q9GV45, A31E/A60N/A81I/F95D/I117V/K70R/L54V/L99Q/M102K/N193R/P142E/Q151K/Q38R/Q45L/V71I/Y165I)
T1 construct: His tag (inferred from IMAC purification); made in house; host or cells: E. coli
Assay: Thermal shift profiles (Thermofluor assay), NLuc
Type: binding
Set-up: unit of the concentration uncertain
Details: compound 100 (unit uncertain); for Thermofluor NLuc, ATP: ATP (2 mM)
Experimental: Thermal stabilization of proteins in the presence of the ligands were determined using Thermofluor technique. MicroAmp optical 384-well plates (Applied Biosystems by Life Technologies), ViiA 7 real-time PCR instrument (Applied Biosystems by Life Technologies) and SYPRO Orange (Life Technologies) were used to test the samples. […]. Proteins were added to the 384-well plate first followed by the compounds. Samples were incubated for 10 mins at room temperature and protected from light. SYPRO Orange dye was diluted to 50x from 5000x stock in a PBS buffer, and 4 µL dye was added to the each well using a multi-channel pipette. The plate was sealed with a MicroAmp optical adhesive film, centrifuged at 1500 RPM for 2 min, and then loaded onto the ViiA 7 real–time PCR instrument for fluorescence intensity measurements upon heating the sample from 25 to 95 °C at 1 °C/min increments. Data was exported to excel, fluorescence intensity data and its first derivative were normalized and plotted using GraphPad Prism to determine Tm. See Supplementary Table 3 for additional details.
Supplementary Figure 6. Comparison of SDR and Thermofluor analysis of […]
Temperature °C Temperature °C […]
Supplementary Table 3. Protocol for Thermofluor assay
Supplementary Table 3: Protocol for Therm ofluor assay
Sequence Param eter Value Description […]
3 Incubation 10 m ins Room tem perature, protected from light
4 Dye 10X Sypro Orange dye in PBS added to the sam ple
5 Centrifugation 2 m in Centrifuge for 2 m in at 1500 RPM at RT
6 Read ViiA7 Read the therm al unfolding of the protein with ViiA7 real-tim e PCR system
4 Prepare 50X dye in PBS: 1 μL Sypro Orange 5000X (Life Technologies), 99 μL ddH2O. Add 4 μL to each well Read the m elting tem perature from 25 to 95 °C using ViiA 7 real tim e PCR instrum ent by following the below instructions Perform therm al denaturation in 384-well assay plate
(i) Place the assay plate into the Applied Biosystem s ViiA7 real-tim e PCR instrum ent and open the ViiA7 RUO software.
Under Experim ental Properties, select the following param eters: Set up: […] (20 μl), Experim ent type: MELT CURVE, Reagents used to detect target sequence: OTHER, Ram p Speed: […]
(ii) Select the Define tab on the left, then select the following param eters: Target nam e: TARGET 1, Reporter: ROX, 6 Quencher: NONE, Passive Reference: NONE
(iii) Select the Assign tab on the left, then perform the following actions: Highlight all 384 wells in the assay plate and check the box next to ‘Target 1’ on the top left of the plate layout. Note: check the ‘Sam ple’ box on the lower left.
(iv) Select the Run Method tab on the left, then m ake the following changes to the default Melt Curve profile: Delete Step 2 of the default cycle, change run m ethod to “Step and Hold” with a 1:00 tim e, set the following tem peratures: an initial 2:00 hold at 25 °C (4 °C), ram ping up in increm ents of 1 ° C to a final tem perature of 95 °C (with a 2:00 hold), click on all three cam eras to activate fluorescence detection throughout the experim ent, and Select total volum e per well of 20 μl
(v) Click on the RUN tab to the left to initiate therm al denaturation.

T1 sequence (Q9GV45 other isoform, or with tags, fused parts or gaps with the stated changes): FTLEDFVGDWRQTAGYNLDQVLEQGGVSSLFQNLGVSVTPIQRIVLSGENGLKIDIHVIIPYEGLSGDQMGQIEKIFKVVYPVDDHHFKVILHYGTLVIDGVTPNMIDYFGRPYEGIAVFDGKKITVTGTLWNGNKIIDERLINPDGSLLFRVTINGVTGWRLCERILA

Compound: CC(CNC(=O)C1CCN(C(=O)c2ncn3c2COC(c2ccccc2)C3)CC1)c1ccccc1 (stereo not drawn) [NCGC 00449795]
- Thermofluor NLuc, No ATP (20.000 °C): 1
- Thermofluor NLuc, ATP (20.000 °C): 0.97
- Thermofluor NLuc, No ATP (20.993 °C): 0.711
- Thermofluor NLuc, ATP (20.993 °C): 0.992
- Thermofluor NLuc, No ATP (21.987 °C): 0.647
- Thermofluor NLuc, ATP (21.987 °C): 1
- Thermofluor NLuc, No ATP (22.980 °C): 0.606
- Thermofluor NLuc, ATP (22.980 °C): 0.993
- Thermofluor NLuc, No ATP (23.974 °C): 0.589
- Thermofluor NLuc, ATP (23.974 °C): 0.974
- Thermofluor NLuc, No ATP (24.967 °C): 0.561
- Thermofluor NLuc, ATP (24.967 °C): 0.95
- Thermofluor NLuc, No ATP (25.960 °C): 0.532
- Thermofluor NLuc, ATP (25.960 °C): 0.929
- Thermofluor NLuc, No ATP (26.954 °C): 0.532
- Thermofluor NLuc, ATP (26.954 °C): 0.916
- Thermofluor NLuc, No ATP (27.947 °C): 0.499
- Thermofluor NLuc, ATP (27.947 °C): 0.908
- Thermofluor NLuc, No ATP (28.940 °C): 0.462
- Thermofluor NLuc, ATP (28.940 °C): 0.904
- Thermofluor NLuc, No ATP (29.934 °C): 0.421
- Thermofluor NLuc, ATP (29.934 °C): 0.9
- Thermofluor NLuc, No ATP (30.927 °C): 0.383
- Thermofluor NLuc, ATP (30.927 °C): 0.894
- Thermofluor NLuc, No ATP (31.921 °C): 0.366
- Thermofluor NLuc, ATP (31.921 °C): 0.886
- Thermofluor NLuc, No ATP (32.914 °C): 0.333
- Thermofluor NLuc, ATP (32.914 °C): 0.878
- Thermofluor NLuc, No ATP (33.907 °C): 0.327
- Thermofluor NLuc, ATP (33.907 °C): 0.87
- Thermofluor NLuc, No ATP (34.901 °C): 0.309
- Thermofluor NLuc, ATP (34.901 °C): 0.863
- Thermofluor NLuc, No ATP (35.894 °C): 0.276
- Thermofluor NLuc, ATP (35.894 °C): 0.856
- Thermofluor NLuc, No ATP (36.887 °C): 0.231
- Thermofluor NLuc, ATP (36.887 °C): 0.849
- Thermofluor NLuc, No ATP (37.881 °C): 0.229
- Thermofluor NLuc, ATP (37.881 °C): 0.841
- Thermofluor NLuc, No ATP (38.874 °C): 0.176
- Thermofluor NLuc, ATP (38.874 °C): 0.833
- Thermofluor NLuc, No ATP (39.868 °C): 0.201
- Thermofluor NLuc, ATP (39.868 °C): 0.827
- Thermofluor NLuc, No ATP (40.861 °C): 0.184
- Thermofluor NLuc, ATP (40.861 °C): 0.824
- Thermofluor NLuc, No ATP (41.854 °C): 0.161
- Thermofluor NLuc, ATP (41.854 °C): 0.821
- Thermofluor NLuc, No ATP (42.848 °C): 0.108
- Thermofluor NLuc, ATP (42.848 °C): 0.817
- Thermofluor NLuc, No ATP (43.841 °C): 0.096
- Thermofluor NLuc, ATP (43.841 °C): 0.812
- Thermofluor NLuc, No ATP (44.835 °C): 0.098
- Thermofluor NLuc, ATP (44.835 °C): 0.805
- Thermofluor NLuc, No ATP (45.828 °C): 0.096
- Thermofluor NLuc, ATP (45.828 °C): 0.794
- Thermofluor NLuc, No ATP (46.821 °C): 0.034
- Thermofluor NLuc, ATP (46.821 °C): 0.779
- Thermofluor NLuc, No ATP (47.815 °C): 0.027
- Thermofluor NLuc, ATP (47.815 °C): 0.76
- Thermofluor NLuc, No ATP (48.808 °C): 0.048
- Thermofluor NLuc, ATP (48.808 °C): 0.734
- Thermofluor NLuc, No ATP (50.795 °C): 0.006
- Thermofluor NLuc, ATP (50.795 °C): 0.656
- Thermofluor NLuc, No ATP (51.788 °C): 0.009
- Thermofluor NLuc, ATP (51.788 °C): 0.601
- Thermofluor NLuc, No ATP (52.782 °C): 0
- Thermofluor NLuc, ATP (52.782 °C): 0.533
- Thermofluor NLuc, No ATP (53.775 °C): 0.03
- Thermofluor NLuc, ATP (53.775 °C): 0.451
- Thermofluor NLuc, No ATP (54.768 °C): 0.027
- Thermofluor NLuc, ATP (54.768 °C): 0.357
- Thermofluor NLuc, No ATP (55.762 °C): 0.051
- Thermofluor NLuc, ATP (55.762 °C): 0.257
- Thermofluor NLuc, No ATP (56.755 °C): 0.14
- Thermofluor NLuc, ATP (56.755 °C): 0.161
- Thermofluor NLuc, No ATP (57.748 °C): 0.19
- Thermofluor NLuc, ATP (57.748 °C): 0.079
- Thermofluor NLuc, No ATP (58.742 °C): 0.3
- Thermofluor NLuc, ATP (58.742 °C): 0.022
- Thermofluor NLuc, No ATP (59.735 °C): 0.413
- Thermofluor NLuc, ATP (59.735 °C): 0
- Thermofluor NLuc, No ATP (60.729 °C): 0.505
- Thermofluor NLuc, ATP (60.729 °C): 0.015
- Thermofluor NLuc, No ATP (61.722 °C): 0.61
- Thermofluor NLuc, ATP (61.722 °C): 0.065
- Thermofluor NLuc, No ATP (62.715 °C): 0.667
- Thermofluor NLuc, ATP (62.715 °C): 0.143
- Thermofluor NLuc, No ATP (63.709 °C): 0.726
- Thermofluor NLuc, ATP (63.709 °C): 0.238
- Thermofluor NLuc, No ATP (65.695 °C): 0.759
- Thermofluor NLuc, ATP (65.695 °C): 0.437
- Thermofluor NLuc, No ATP (66.689 °C): 0.785
- Thermofluor NLuc, ATP (66.689 °C): 0.525
- Thermofluor NLuc, No ATP (68.676 °C): 0.749
- Thermofluor NLuc, ATP (68.676 °C): 0.658
- Thermofluor NLuc, No ATP (69.669 °C): 0.746
- Thermofluor NLuc, ATP (69.669 °C): 0.703
- Thermofluor NLuc, No ATP (70.662 °C): 0.73
- Thermofluor NLuc, ATP (70.662 °C): 0.736
- Thermofluor NLuc, No ATP (71.656 °C): 0.72
- Thermofluor NLuc, ATP (71.656 °C): 0.76
- Thermofluor NLuc, No ATP (72.649 °C): 0.696
- Thermofluor NLuc, ATP (72.649 °C): 0.778
- Thermofluor NLuc, No ATP (73.643 °C): 0.686
- Thermofluor NLuc, ATP (73.643 °C): 0.793
- Thermofluor NLuc, No ATP (74.636 °C): 0.672
- Thermofluor NLuc, ATP (74.636 °C): 0.807
- Thermofluor NLuc, No ATP (75.629 °C): 0.623
- Thermofluor NLuc, ATP (75.629 °C): 0.82
